One block for each molecule: values may come before it.
Assays:
[1] = tested on: N-methyl-D-aspartate receptor (NMDAR); settings: cited from earlier work; for Finding: schizophrenia treatment; for Limitation: efficacy / Limitation: toxicity / therapeutic window: Table 3
[2] = tested on: young adults with uncomplicated type 1 diabetes; settings: 7000 mg per day, one week; cited from earlier work
[3] = over-the-counter nutrition supplement; cited from earlier work
[4] = tested on: patients with schizophrenia; assay: 16-week adjunctive minocycline clinical trial: SANS and PANSS; type: in vivo, human; settings: minocycline 200 mg per day added to risperidone, N = 27, week 16 value minus baseline value, mean
Source text: Adult patients with schizophrenia were recruited from the 1st Affiliated Hospital of Kunming Medical University, and the Mental Health Center of Yunnan Province, China, between June 2010 and November 2011. The diagnosis of schizophrenia was made by trained clinical interviewers using the structured clinical interview for DSM-IV diagnosis (SCID). First et al., In: Structured Clinical interview for DSM-IV Axis I Disorders-Clinician Version (SCID-CV). Washington, D.C.: American Psychiatry Press. (1996). Other inclusion criteria included: (1) age 18 to 40 years old; (2) disease duration ≤5 years; (3) on stable dose of risperidone for at least 4 weeks prior to screening; (4) a stable living arrangement. Exclusion criteria were: (1) being allergic to minocycline or tetracycline; (2) a psychiatric diagnosis other than schizophrenia (determined by SCID); (3) serious, unstable medical conditions; (4) diagnosis of diabetes mellitus; (4) female patients who were planning to become pregnant, or were pregnant or lactating were also excluded from the study. The study was approved by the ethics committee of the 1st Affiliated Hospital of Kunming Medical University.
(§1) After screening, each eligible subject underwent baseline assessments including the Scale for the Assessment of Negative Symptoms (SANS), the Positive and Negative Syndrome Scale (PANSS), and blood draw for lab tests. Andreasen N C., “Negative symptoms in schizophrenia: Definition and reliability” Arch. Gen. Psychiatry 39:784-788 (1982); and Kay et al., “The positive and negative syndrome scale (PANSS) for schizophrenia” Schizophr. Bull. 13:261-276 (1987). Subjects continued to take risperidone at the same dose throughout the study, and were randomized in a 1:1 ratio to receive either minocycline (200 mg per day) or placebo for 16 weeks. At week 16, baseline assessments were repeated.
Statistical analysis was performed using SPSS (version 24.0, IBM Corp, Armonk, N.Y.). Descriptive statistics were performed to summarize demographic and clinical characteristics of the study sample. Group comparisons were performed using the independent t test for continuous variables, and the Fisher exact test or Chi-square test for categorical variables. Analysis of covariance (ANCOVA) was used to compare change scores from baseline to week 16 between the two treatment groups controlling for baseline scores and potential confounding variables. For all analyses, a p value less than 0.05 (2-tailed) was used for statistical significance.

[5] = tested on: NO metabolites (nitrites and nitrates); assay: Plasma levels of NO metabolites, Griess method (minocycline trial); type: in vivo, human; settings: minocycline 200 mg per day, N = 27, fasting plasma, week 16 value minus baseline value, mean
Source text: as §1
(§2) Anthropometric measures included weight, height and body mass index (BMI). Blood samples were obtained 11 h (±1 h) after the completion of the last meal the night before. Subjects were allowed to drink water during the fasting period. Laboratory assays for plasma levels of TNFα, and IL-1β were performed using the enzyme-linked immunosorbent assay (ELISA) (Bender Med Systems GmbH Campus Vienna Biocenter 2 A-1030 Vienna, Austria, Europe). Plasma levels of NO metabolites (nitrites and nitrates) were measured using the Griess method (Cortas & Wakid 1990) (Nanjing Jiancheng Bioengineering Institute, China).
(§3) Statistical analysis was performed using SPSS (version 24.0, IBM Corp, Armonk, N.Y.). […]

IL-1β = assay: Plasma IL-1β by ELISA (minocycline trial); type: in vivo, human; settings: minocycline 200 mg per day, N = 27; fasting plasma; week 16 value minus baseline value; mean; listed as Minocycline
Source text: as §1, §2, §3

TNFα = assay: Plasma TNFα by ELISA (minocycline trial); type: in vivo, human; settings: minocycline 200 mg per day, N = 27; fasting plasma; week 16 value minus baseline value; mean; listed as Minocycline
Source text: as §1, §2, §3

[6] = Body mass index (minocycline trial); type: in vivo, human; settings: minocycline 200 mg per day, N = 27; week 16 value minus baseline value; mean
Source text: as §1, §2, §3

[7] = cited from earlier work
[8] = underlying neurologic disorders, co-administration of levodopa and sapropterin; cited from earlier work

Structure (SMILES): C[C@@H](N)C(=O)O [D-Alanine]
Finding [1]: Improvement in overall

Structure (SMILES): N[C@@H]1CONC1=O [D-Cycloserine]
Limitation: efficacy [1]: Decrease in efficacy over time
Limitation: toxicity / therapeutic window [1]: Very narrow therapeutic window
Finding [1]: Inconsistent finding; improvement

Structure (SMILES): N[C@H](CO)C(=O)O [D-Serine]
Limitation: toxicity / therapeutic window [1]: Nephrotoxicity
Finding [1]: Improvement in overall

Structure (SMILES): NCC(=O)O [Glycine]
Limitation: efficacy [1]: High doses required to reach therapeutic effects
Finding [1]: Improvement in overall

Structure (SMILES): N=C(N)NCCC[C@H](N)C(=O)O [L-arginine]
Effect of supplementation [2]: improved oxidative stress status, increased blood flow and exercise responses
Safety and tolerability [3]: considered safe and well tolerated in general

Structure (SMILES): CCCCCNCC(N)=O [Milacemide]
Finding [1]: No significant clinical benefit

Structure (SMILES): CNCC(=O)O [Sarcosine]
Finding [1]: Improvment in overall

BMI, week 16 change [6]: 1.98 kg/m^2
Structure (SMILES): CN(C)c1ccc(O)c2c1C[C@H]1C[C@H]3[C@H](N(C)C)C(O)=C(C(N)=O)C(=O)[C@@]3(O)C(O)=C1C2=O [minocycline]
PANSS general psychopathology score, week 16 change [4]: −14.5
PANSS negative symptom score, week 16 change [4]: −10.8±5.9
PANSS positive symptom score, week 16 change [4]: −8.5
PANSS total score, week 16 change [4]: −32.9±17.1
SANS total score, week 16 change [4]: −31.2±25.5
PANSS negative symptom score, week 16 change ([4]; listed as Minocycline): −10.8
PANSS total score, week 16 change ([4]; listed as Minocycline): −32.9
SANS total score, week 16 change ([4]; listed as Minocycline): −31.2
Nitric oxide (plasma levels of NO metabolites), week 16 change [5]: -8.19 ± 18.09 µmol/L
Nitric oxide (plasma levels of NO metabolites), week 16 change ([5]; listed as Minocycline): -8.19 µmol/L
IL-1β plasma level, week 16 change (IL-1β): -0.99 pg/mL
TNF-α plasma level, week 16 change (TNFα): -0.97 pg/mL
Tolerability ([7]; in humans): well tolerated in humans
Oral bioavailability ([7]; in vivo, po): high oral bioavailability

Structure (SMILES): C[C@H](O)[C@H](O)[C@H]1CNc2nc(N)[nH]c(=O)c2N1 [sapropterin]
Patients who experienced confusions, exacerbation of convulsions, over-stimulation, or irritability [8]: 3 patients

Reference: US11331319B2, “Combination treatment for neuropsychiatric disorders” (UNIVERSITY OF MASSACHUSETTS, priority 2017, dated 2022)
